Test results reported in paper PMC11637378, “Optogenetic screening of MCT1 activity implicates a cluster of non-steroidal anti-inflammatory drugs (NSAIDs) as inhibitors of lactate transport” (PLOS ONE, 2024).
pIC50: −log10 of the molar value. Values joined by “and” are separate entries in the source; they are usually repeats but may differ in a detail not shown here. Identical values can stand only once. Like-named read-outs stand apart in the source and are kept apart here.

Columns and labels:
MCT1 = details: cited from earlier work; for MCT1 inhibitor annotation: NOTES/Group column, ref not given
[1] = cited from earlier work
parent strain (SAWy518) [2] = test system: parent strain (SAWy518)
parent strain (SAWy518) [3] = test: Off-target control in IC50 determination: growth of light-insensitive parent strain at each inhibitor concentration; type: cell-based, Saccharomyces cerevisiae; details: at the dosages used in this study
parent strain (SAWy518) [4] = test: microbe, parasite or virus in culture; set-up: species or system Saccharomyces cerevisiae SAWy518; Off-target growth counter-screen, OD600 as per cent of untreated wells, strain lacking MCT1; details: 18.5 h; sheet Primary Screen - final;; off-target growth of parent strain, about 18 h
Description: Cells were grown for 18 hours prior to OD measurement. Fill represents manual compound grouping based on compound class or target. OD600 is reported in Tecan units. […] The drug library used in this study for the initial screen and rescreen was provided by the Small Molecule Screening Center at Princeton University, through a collaboration with Dr. Hahn Kim. […] Follow-up analysis (IC50 determinations) on library compounds was performed using compounds purchased from outside sources. […] Stocks were then diluted 100-fold into media containing 0.01 OD600 inoculation of yeast, to achieve the final concentrations listed. Where compounds were added manually (for example 10 μM AZD3965 addition) stock concentrations were diluted by a factor of 100-fold regardless of scale, resulting in a final concentration of 1% v/v DMSO which is well tolerated by yeast.

cancer cell growth = details: cited from earlier work

| SMILES | pIC50 (MCT1; read-out: previously reported inhibition value for MCT1 (IC50)) | blood-plasma concentration ([1]; 150–200 mg daily) | OffScreen_percentage (parent strain (SAWy518) [2]) | Offscreen_18hr (parent strain (SAWy518) [2]) | Offscreen_24hr (parent strain (SAWy518) [2]) | Offscreen_42hr (parent strain (SAWy518) [2]) | Read_percentage (parent strain (SAWy518) [2]) | off-target toxicity (parent strain (SAWy518) [3]) | viability at 10 µM (parent strain (SAWy518) [4]) | MCT1 inhibitor annotation (MCT1; library annotation) | blood-plasma concentration ([1]; 20 mg/day) | concentrations of in vitro anticancer activity (cancer cell growth) | MCT1 inhibition (annotation) (MCT1; library annotation) | Known MCT1 inhibitor (MCT1; library annotation) |
| --- | --- | --- | --- | --- | --- | --- | --- | --- | --- | --- | --- | --- | --- | --- |
| O=C(O)Cc1ccccc1Nc1c(Cl)cccc1Cl [Diclofenac, reference compound] | 5.85 | 6.1 µM | 100.855 percentage | 0.8139 | 0.8825 | 0.9387 | 100.855 percentage | – | – | – | – | – | – | – |
| CC(C(=O)O)c1cccc(C(=O)c2ccccc2)c1 (stereo not shown) [Ketoprofen] | – | – | – | – | – | – | – | do not exhibit off-target toxicity | – | – | – | – | – | – |
| O=C(CCc1ccc(O)cc1)c1c(O)cc(O)cc1O [Phloretin] | – | – | 94.4238 percentage | 0.762 | 0.892 | 0.9541 | 94.4238 percentage | – | 94.4% | MCT1 inhibitor | – | – | – | – |
| CN1C(C(=O)Nc2ccccn2)=C(O)c2ccccc2S1(=O)=O [Piroxicam, reference compound] | – | – | 95.2292 percentage | 0.7685 and 0.7781 | 0.8625 and 0.86 | 0.9267 and 0.9178 | 95.2292 percentage | – | – | – | 16 to 20 µM | 25 to 30 µM | – | – |
| O=c1c(O)c(-c2ccc(O)c(O)c2)oc2cc(O)cc(O)c12 [Quercetin (Sophoretin)] | – | – | – | 0.7827 | 0.8834 | 0.9444 | – | – | – | – | – | – | PI3K, PKC, Src, Sirtuin inhibitor, MCT1 inhibitor - flavanoid | – |
| O=c1c(O)c(-c2ccc(O)c(O)c2)oc2cc(O)cc(O)c12 [Quercetin dihydrate] | – | – | – | 0.7753 | 0.8789 | 0.9377 | – | – | – | – | – | – | Known MCT1 inhibitor, PI3-K and PDE inhibitor (flavanoid) | – |
| O=c1c(O)c(-c2ccc(O)c(O)c2)oc2cc(O)cc(O)c12 [Quercetin, reference compound] | – | – | 96.0719 percentage | 0.7753 | 0.8789 | 0.9377 | 96.0719 percentage | – | – | Known MCT1 inhibitor, PI3-K and PDE inhibitor (flavanoid) | – | – | – | Known MCT1 inhibitor, PI3-K and PDE inhibitor (flavanoid) |
| CC[C@@H](C(=O)[C@@H](C)[C@@H](O)[C@H](C)[C@@H]1O[C@@H]([C@@H](CC)C(=O)O)CC[C@@H]1C)[C@H]1O[C@]2(C=C[C@@H](O)[C@]3(CC[C@@](C)([C@H]4CC[C@](O)(CC)[C@H](C)O4)O3)O2)[C@H](C)C[C@@H]1C [Salinomycin] | – | – | 99.2937 percentage | 0.8013 | 0.892 | 0.9461 | 99.2937 | – | 99.3% | – | – | – | – | – |
| CC1=C(C)C(=O)C(C(CCCCCC(=O)O)c2ccccc2)=C(C)C1=O (stereo not shown) [Seratrodast] | – | – | 93.9777 percentage | 0.7584 | 0.8726 | 0.927 | 93.9777 | – | 94% | – | – | – | – | – |
| O=C1c2ccc(Nc3ccc(F)cc3F)cc2CCc2ccc(OC[C@H](O)CO)cc21 [Skepinone-L] | – | – | 96.8897 percentage | 0.7819 | 0.9197 | 0.985 | 96.8897 | – | 96.9% | – | – | – | – | – |
| CC1=C(CC(=O)O)c2cc(F)ccc2/C1=C\c1ccc([S+](C)[O-])cc1 (stereo not shown) [Sulindac, reference compound] | – | – | 103.073 percentage | 0.8318 | 0.9131 | 0.9739 | 103.073 | do not exhibit off-target toxicity | – | – | – | – | – | – |
| CCN(CC)CCNC(=O)c1c(C)[nH]c(/C=C2\C(=O)Nc3ccc(F)cc32)c1C.O=C(O)C[C@H](O)C(=O)O [Sunitinib Malate] | – | – | 101.351 percentage | 0.8179 | 0.9023 | 0.9606 | 101.351 | – | 101% | – | – | – | – | – |
| Cc1ccc(S(=O)(=O)N[C@@H](Cc2ccccc2)C(=O)CCl)cc1 [TCPK] | – | – | 91.0409 percentage | 0.7347 | 0.8725 | 0.9353 | 91.0409 | – | 91% | – | – | – | – | – |
| O=C(O)Cc1cc(I)c(Oc2cc(I)c(O)c(I)c2)c(I)c1 [TETRAC] | – | – | 101.202 percentage | 0.8167 | 0.8874 | 0.9359 | 101.202 | – | 101% | – | – | – | – | – |
| O=[N+]([O-])c1ccc(CNc2nc(NCc3cccc(C(F)(F)F)c3)nc3[nH]cnc23)cc1 [TNP] | – | – | 99.4919 percentage | 0.8029 | 0.895 | 0.9464 | 99.4919 | – | 99.5% | – | – | – | – | – |
| C=CC[C@@H]1/C=C(\C)C[C@H](C)C[C@H](OC)[C@H]2O[C@@](O)(C(=O)C(=O)N3CCCC[C@H]3C(=O)O[C@H](/C(C)=C/[C@@H]3CC[C@@H](O)[C@H](OC)C3)[C@H](C)[C@@H](O)CC1=O)[C@H](C)C[C@@H]2OC [Tacrolimus] | – | – | 90.0867 percentage | 0.727 and 0.685 | 0.8973 and 0.8833 | 0.9661 and 0.9834 | 90.0867 | – | 90.1% | – | – | – | – | – |
| CC/C(=C(\c1ccccc1)c1ccc(OCCN(C)C)cc1)c1ccccc1.O=C(O)CC(O)(CC(=O)O)C(=O)O [Tamoxifen Citrate] | – | – | 96.6419 percentage | 0.7799 | 0.893 | 0.9507 | 96.6419 | – | 96.6% | – | – | – | – | – |
| NCCS(=O)(=O)O [Taurine] | – | – | 104.139 percentage | 0.8404 | 0.9173 | 0.9826 | 104.139 | – | 104% | – | – | – | – | – |
| CCOC(=O)[C@@H](N)Cc1ccc(-c2cc(O[C@H](c3ccc(Cl)cc3-n3ccc(C)n3)C(F)(F)F)nc(N)n2)cc1.O=C(O)CNC(=O)c1ccccc1 [Telotristat Etiprate] | – | – | 96.9393 percentage | 0.7823 | 0.9107 | 0.9681 | 96.9393 | – | 96.9% | – | – | – | – | – |
| N#CC(=C(\N)Sc1ccccc1N)/C(C#N)=C(/N)Sc1ccccc1N [U0126] | – | – | 91.0905 percentage | 0.7351 | 0.8786 | 0.95 | 91.0905 | – | 91.1% | – | – | – | – | – |
| COc1cc(C(=O)NS(=O)(=O)c2ccccc2C)ccc1Cc1cn(C)c2ccc(NC(=O)OC3CCCC3)cc12 [Zafirlukast] | – | – | 103.829 percentage | 0.8379 | 0.9188 | 0.9793 | 103.829 | – | 104% | – | – | – | – | – |
| COc1c(O)cc2oc3cc(O)c(CC=C(C)C)c(O)c3c(=O)c2c1CC=C(C)C [alpha-mangostin] | – | – | 89.9628 percentage | 0.726 | 0.8801 | 0.9296 | 89.9628 percentage | – | 90% | – | – | – | – | – |
